Literature values, collected in US9848760B2, “Devices for continual monitoring and introduction of gastrointestinal microbes” (Gearbox, LLC, priority 2009, dated 2017).

What was measured:
[1] = tested on: enterotoxigenic Escherichia coli (ETEC); conditions: ETEC infection, MIC90 level, FIG. 17
[2] = infant stool, associated with treatment
[3] = infant treated at 4 months of age, relative to reference microbial profile at 1 month of age

**Q.** With `CC1(C)S[C@@H]2[C@H](NC(=O)[C@H](N)c3ccccc3)C(=O)N2[C@H]1C(=O)O` [AMP, ampicillin] as the molecule, how does the MIC values [1] read?
**A.** high

**Q.** Which MIC values [1] does the source give for `COc1cc(Cc2cnc(N)nc2N)cc(OC)c1OC` [TMP, trimethoprim] here?
**A.** high

**Q.** For TMP/sulfamethoxazole [SXT], which MIC values [1] is on record?
**A.** high

**Q.** With `CC1(C)S[C@@H]2[C@H](NC(=O)[C@H](N)c3ccc(O)cc3)C(=O)N2[C@H]1C(=O)O` [amoxicillin] as the molecule, how does the abundance of bacilli (intestinal microbes; [2]) read?
**A.** increases

**Q.** And the “abundance of gamma proteobacteria” value (intestinal microbes; [2])?
**A.** reductions

**Q.** What about the “bacterial composition in stool samples” value (intestinal microbes; [3]) of the same molecule?
**A.** altered

**Q.** What about the “total bacterial density in stool samples” value (intestinal microbes; [3]) of the same molecule?
**A.** decrease
